According to ChEMBL document CHEMBL4622870, “Design, synthesis and evaluation of hydrazine and acyl hydrazone derivatives of 5-pyrrolidin-2-one as antifungal agents” (Bioorg Med Chem Lett, 2020):

How the values were obtained:
Fusarium solani = assay: Antifungal activity against Fusarium solani assessed as fungal growth inhibition at 100 ug/ml by micro-dilution method relative to control; format: functional; settings: read-out: GI
Paecilomyces variotii = assay: Antifungal activity against Paecilomyces variotii assessed as fungal growth inhibition at 100 ug/ml by micro-dilution method relative to control; format: functional; settings: read-out: GI
Penicillium ochrochloron = assay: Antifungal activity against Penicillium ochrochloron assessed as fungal growth inhibition at 100 ug/ml by micro-dilution method relative to control; format: functional; settings: read-out: GI
Aspergillus oryzae = assay: Antifungal activity against Aspergillus oryzae assessed as fungal growth inhibition at 100 ug/ml by micro-dilution method relative to control; format: functional; settings: read-out: GI
Botrytis cinerea = assay: Antifungal activity against Botrytis cinerea assessed as fungal growth inhibition at 100 ug/ml by micro-dilution method relative to control; format: functional; settings: read-out: GI
Alternaria alternata = assay: Antifungal activity against Alternaria alternata assessed as fungal growth inhibition at 100 ug/ml by micro-dilution method relative to control; format: functional; settings: read-out: GI
[1] = tested on: Cladosporium cladosporioides; assay: Antifungal activity against Cladosporium cladosporioides assessed as fungal growth inhibition at 100 ug/ml by micro-dilution method relative to control; format: functional; settings: read-out: GI
Sclerotinia sclerotiorum = assay: Antifungal activity against Sclerotinia sclerotiorum assessed as fungal growth inhibition at 100 ug/ml by micro-dilution method relative to control; format: functional; settings: read-out: GI
Geotrichum candidum [2] = assay: Antifungal activity against Geotrichum candidum assessed as fungal growth inhibition at 100 ug/ml by micro-dilution method relative to control; format: functional; settings: read-out: GI
Pichia kudriavzevii = assay: Antifungal activity against Candida krusei assessed as fungal growth inhibition at 100 ug/ml by micro-dilution method relative to control; format: functional; settings: read-out: GI
Kluyveromyces marxianus = assay: Antifungal activity against Candida pseudotropicalis assessed as fungal growth inhibition at 100 ug/ml by micro-dilution method relative to control; format: functional; settings: read-out: GI
Candida tropicalis = assay: Antifungal activity against Candida tropicalis assessed as fungal growth inhibition at 100 ug/ml by micro-dilution method relative to control; format: functional; settings: read-out: GI
Geotrichum candidum [3] = assay: Antifungal activity against Geotrichum candidum assessed as fungal growth inhibition by micro-dilution method; format: functional
HEK293 = assay: Cytotoxicity against human HEK293 cells assessed as effect on cell viability measured after 72 hrs by MTS assay; format: cell-based; settings: hek293, 72 h

SMILES	inhibition of growth at 100 µg/mL (Fusarium solani)	inhibition of growth at 100 µg/mL (Paecilomyces variotii)	inhibition of growth at 100 µg/mL (Penicillium ochrochloron)	inhibition of growth at 100 µg/mL (Aspergillus oryzae)	inhibition of growth at 100 µg/mL (Botrytis cinerea)	inhibition of growth at 100 µg/mL (Alternaria alternata)	inhibition of growth at 100 µg/mL [1]	inhibition of growth at 100 µg/mL (Sclerotinia sclerotiorum)	inhibition of growth at 100 µg/mL (Geotrichum candidum [2])	inhibition of growth at 100 µg/mL (Pichia kudriavzevii)	inhibition of growth at 100 µg/mL (Kluyveromyces marxianus)	inhibition of growth at 100 µg/mL (Candida tropicalis)	MIC50 (Geotrichum candidum [3])	Activity (HEK293)
O=C1CC[C@@H](C(=O)N/N=C/c2ccc(Cl)nc2)N1	23%	42%	62%	0%	0%	0%	33%	0%	72%	2%	10%	0%	38.4 µg/mL	Non-Toxic
C=C(C)C1CC=C(/C=N/NC(=O)[C@@H]2CCC(=O)N2)CC1 (some centres not stated)	0%	31%	45%	0%	13%	0%	56%	0%	39%	18%	0%	0%		Non-Toxic
COc1cc(/C=N/NC(=O)[C@@H]2CCC(=O)N2)ccc1O	0%	22%	0%	0%	0%	20%	0%	0%	0%	37%	0%	0%		Non-Toxic
N#Cc1ccc(/C=N/NC(=O)[C@@H]2CCC(=O)N2)cc1	0%	33%	20%	0%	0%	42%	0%	0%	0%	10%	0%	0%		Non-Toxic
COc1ccc(/C=N/NC(=O)[C@@H]2CCC(=O)N2)cc1	0%	36%	23%	24%	0%	3%	35%	38%	25%	40%	40%	49%		Non-Toxic
O=C1CC[C@@H](C(=O)N/N=C/c2ccc(C(F)(F)F)cc2)N1	55%	44%	44%	0%	0%	21%	11%	0%	85%	21%	21%	17%	63.7 µg/mL	Non-Toxic
COc1cc(/C=N/NC(=O)[C@@H]2CCC(=O)N2)cc(OC)c1OC	0%	26%	32%	0%	0%	29%	0%	0%	0%	50%	18%	0%		Non-Toxic
OC(Cn1cncn1)(Cn1cncn1)c1ccc(F)cc1F [FLUCONAZOLE]													1.6 µg/mL	
O=C1CC[C@@H](C(=O)N/N=C/c2ccccc2O)N1	40%	14%	30%	7%	0%	38%	0%	21%	70%	38%	18%	7%	62 µg/mL	Non-Toxic
O=C1CC[C@@H](C(=O)N/N=C/c2cc(F)ccc2F)N1	58%	37%	26%	13%	6%	0%	34%	0%	62%	47%	18%	0%		Non-Toxic
O=C1CC[C@@H](C(=O)N/N=C/CCc2ccccc2)N1	0%	39%	29%	0%	6%	0%	53%	0%	68%	0%	12%	17%		Non-Toxic
CC(C)=CCC/C(C)=C/C=N/NC(=O)[C@@H]1CCC(=O)N1	43%	0%	0%	17%	27%	0%	27%	15%	5%	0%	8%	38%		Non-Toxic
O=C1CC[C@@H](C(=O)N/N=C/c2c(F)c(F)c(F)c(F)c2F)N1	40%	0%	21%	4%	17%	0%	11%	5%	36%	0%	0%	0%		Non-Toxic
O=C1CC[C@@H](C(=O)N/N=C/C2CCCCC2)N1	0%	36%	23%	8%	8%	8%	1%	0%	62%	0%	30%	0%		Non-Toxic
CC1(C)C2CC=C(/C=N/NC(=O)[C@@H]3CCC(=O)N3)C1C2 (some centres not stated)	0%	39%	0%	4%	0%	0%	0%	0%	0%	0%	18%	0%		Non-Toxic
O=C1CCC(NNc2ccccn2)N1 (racemic)	64%	11%	21%	23%	0%	0%	0%	0%	32%	0%	0%	8%		Non-Toxic
O=C1CC[C@@H](C(=O)N/N=C/c2cccc(C(F)(F)F)c2Cl)N1	0%	19%	44%	4%	0%	12%	36%	0%	62%	47%	18%	0%		Non-Toxic
